{"source": "patent US20050008640A1", "about": "“Method of treating transplant rejection” (priority 2003, published 2005)", "key": {"[1]": {"tested_on": "BALB/c cardiac allograft in C57BL/6 recipients", "experiment": "Neonatal cardiac transplantation", "format": "in vivo, C57BL/6 mice", "conditions": "for cardiac allograft survival on day 13 post transplantation: q.d. from day -1, visual observation and electrocardiogram", "text": "Neonatal cardiac transplantation was done using a modification of methods described by Judd, K. P. & Trentin, J. J; Transplantation, 11(3): 298-302, 1971 and Fey, T. A., Krause, R. A., Hsieh, G. C., et al; J. Pharmacol. Tox. Methods, 39: 9-17, 1998 which are incorporated herein in their entirety.\nHearts from one to two day old C57BL/6 (isograft) and BALB/c (allograft) pups were removed aseptically and stored in cold PBS until transplant. Adult C57BL/6 mice were used as transplant recipients. Each recipient mouse was transplanted with an isograft heart in the left ear and an allograft heart in the right ear. Mice were anesthetized with avertin (0.25 cc/mouse, i.p.) (2.0 G 2,2,2-Tribromoethanol) (Aldrich, Milwaukee, Wis.) plus 2.0 ml 2-methyl-2-butanol (tert-amyl alcohol) (Aldrich, Milwaukee, Wis.) and protective ointment was applied to eyes after anesthesia. An incision was made in each ear pinnae using a scalpel blade and straight fine forceps were used to create a subcutaneous pocket in the ear. The donor heart was placed into the pocket using a second pair of forceps. On days 5-16, mice were anesthetized with isofluorane (Henry Schein, Melville, N.Y.) /oxygen and the heartbeats were visually assessed using a dissecting microscope. On the final day electrical activity of the cardiac tissue was monitored by electrocardiogram. The ears were then removed and the transplanted tissue were evaluated histologically for evidence of inflammation and necrosis (rejection)."}, "IgG2a alloantibody": {"tested_on": "IgG2a alloantibody", "experiment": "Alloantibody measurement, IgG2a", "format": "in vivo, C57BL/6 mice", "conditions": "serum 21 days after cardiac allograft; dose not stated", "protocol": "(§1) All sera were heat inactivated at 56° C. for 30 minutes and stored at −20° C. prior to analysis. BALB/c T cells were purified from spleen using MACS CD90 (Thy1.2) beads (Miltenyi Biotech, Auburn, Calif.). Briefly, 10^7 cells were resuspended in buffer containing 10 mg/ml of human IgG (Sigma, St. Louis, Mo.). […] The bead/cell mixture was then incubated for 15 minutes at 6-12° C., washed, and resuspended in 500 μl PharMingenStain Buffer (PharMingen , San Diego, Calif.) per 10^8 cells and run through an LS+ selection column. The isolated T cell suspension was adjusted to a concentration of 1×10^6 cells/ml. For flow cytometric analysis BALB/c T cells were incubated with recipient sera (1:50 for IgG2a analysis, 1:40 for IgG1 analysis). Following a 30 minute incubation at 4° C., the cells were washed and resuspended in either goat anti-mouse IgG1-phycoerythrin (PE) or anti-mouse IgG2a-PE antibody (Caltag, Burlingame, Calif.). Cells were analyzed using a Becton Dickinson FACScan (Mountain View, Calif.). Data are presented as mean and SEM of fluorescence intensity corrected for control (naive serum) fluorescence. Statistical analysis was performed using a two-tailed Student's t-test."}, "IgG1 alloantibody": {"tested_on": "IgG1 alloantibody", "experiment": "Alloantibody measurement, IgG1", "format": "in vivo, C57BL/6 mice", "conditions": "serum 21 days after cardiac allograft; dose not stated", "protocol": "as §1"}, "anti-CD3 induced IL-2": {"tested_on": "anti-CD3 induced IL-2", "experiment": "Anti-CD3 induced IL-2 production", "format": "in vivo, BALB/c mice", "conditions": "12.5 mg/kg p.o.", "protocol": "Six to 8 week old BALB/c mice were dosed p.o. with EXAMPLE 3 30 minutes prior to i.v. injection of 75 ng hamster anti-mouse CD3 antibody, 145-2C11 (PharMingen, San Diego, Calif.). Two hours after anti-CD3 injection mice were bled via cardiac puncture, serum was collected and assayed for IL-2 by ELISA (Endogen, Woburn, Mass.)."}, "[2]": {"tested_on": "BALB/c skin allograft in C57BL/6 recipient mice", "experiment": "Skin transplantation", "format": "in vivo, C57BL/6 mice", "conditions": "q.d. day -1 to day 9", "text": "Skin transplantation was done using a modification of a previously described method Chang, A. E. & Sugarbaker, P. H; Transplantation, 29: 381, 1980 and Sugarbaker, P. H. & Chang, A; J. Immunol. Methods, 31: 167, 1979. Tail skin was collected from BALB/c donors, scraped free of fat and fascia and maintained in PBS on ice until transplanted. Partial thickness wounds were created on the backs of C57BL/6 recipient mice and the graft was cut to exactly fit the wound bed. Grafts were adhered to the wound bed with a small amount of wound glue (Henry Schein, Melville, N.Y.), covered with petroleum jelly embedded gauze (Sherwood Medical, St. Louis, Mo.) and bandaged for 5 days. On day 6, bandages were removed and grafts were scored visually for necrosis from day 6 to day 10."}, "C57BL/6 mice": {"tested_on": "C57BL/6 mice", "experiment": "Delayed type hypersensitivity (DTH), mBSA footpad challenge", "format": "in vivo", "protocol": "A modification of a method described by Magram, J., Turek, C. W., Killeen, N; Immunity, 4: 471, 1996 and Magram, J., Sfarra, J., Connaughton, S., et al; Ann. NY Acad. Sci., 795: 60-70, 1996 was used. On day 0 C57BL/6 mice were immunized intradermal (i.d.) with 400 μg methylated bovine serum albumin (mBSA) (Sigma Chemical Co., St. Louis, Mo.) in a 1:1 emulsion with complete Freund's adjuvant (Difco Labs, Detroit, Mich.). […] On day 7 post immunization mice were challenged in one hind footpad with 100 μg of mBSA in 20 μl of PBS and in the opposite footpad with PBS alone. Footpad swelling was measured 24 hours after challenge using a vernier caliper."}, "[3]": {"tested_on": "BALB/c islet grafts in diabetic C57BL/6 recipients", "experiment": "Islet transplantation", "format": "in vivo, C57BL/6 mice", "conditions": "12 mg/kg oral daily", "protocol": "Chemical diabetes was induced in C57BL/6 mice using a single intraperitoneal dose of streptozocin (150 mg/kg) as previously described in Markees, T. G., Serreze, D. V., Phillips, N. E., et al; Diabetes, 48(5): 967-974, 1999. Mice with persistent hyperglycemia of >300 mg/dl were selected for experimentation as allograft recipients. Blood for plasma glucose was monitored thrice weekly (Glucose Analyzer2; Beckman Instruments, Fullerton, Calif.). Islets of Langerhans from BALB/c donors were isolated by collagenase digestion followed by density-gradient separation, as described previously Markees, T. G., Serreze, D. V., Phillips, N. E., et al; Diabetes, 48(5): 967-974, 1999. Approximately 20 islets/g body weight were transplanted into the renal subcapsular space C57BL/6 recipients. Oral treatments were provided daily beginning one day prior to islet transplant through day 28. Rejection was defined as the first of two consecutive days on which the plasma glucose was greater than or equal to 250 mg/dl. To verify the functionality of islet grafts, the graft bearing kidney was removed and placed in 10% formalin for histological analysis. Recurrence of hyperglycemia after graft removal was interpreted as evidence that the graft was the source of insulin in treated mice."}}, "data": [{"smiles": "COc1cc(-c2nn(C3CCC(N4CCN(C)CC4)CC3)c3ncnc(N)c23)ccc1NC(=O)c1cc2ccccc2n1C", "note": "(centres unmarked) [Example 3]", "values": [{"measurement": "cardiac allograft survival on day 13 post transplantation", "setting": "[1]; 6 mg/kg p.o.", "value": 60, "unit": "%"}, {"measurement": "cardiac allograft survival on day 13 post transplantation", "setting": "[1]; 12 mg/kg p.o.", "value": 100, "unit": "%"}, {"measurement": "Percent Survival Day 16 Post Transplant (cardiac allograft, electrocardiogram)", "setting": "[1]; Example 3 3 mg/kg p.o., q.d.", "value": 10, "unit": "%"}, {"measurement": "histological evaluation of transplanted allograft hearts", "setting": "[1]; compared to vehicle treated hearts", "value": "decrease in peri- and intra-graft inflammation and necrosis"}, {"measurement": "IgG2a alloantibody isotype production", "setting": "IgG2a alloantibody", "value": "completely inhibited"}, {"measurement": "IgG1 alloantibody isotype production", "setting": "IgG1 alloantibody", "value": "completely inhibited"}, {"measurement": "inhibition of anti-CD3 induced IL-2", "setting": "anti-CD3 induced IL-2", "value": "complete inhibition"}, {"measurement": "survival of skin allografts", "setting": "[2]; 6 mg/kg p.o.", "value": 42, "unit": "%"}, {"measurement": "survival of skin allografts", "setting": "[2]; 12 mg/kg p.o.", "value": 90, "unit": "%"}, {"measurement": "inhibition of DTH", "setting": "C57BL/6 mice; treatment given only on days 7 and 8 (around the antigen challenge)", "value": 65, "unit": "%"}, {"measurement": "inhibition of footpad swelling 24 hours post challenge", "setting": "C57BL/6 mice; treatment p.o., q.d. from day -1 to day 8", "value": 77, "unit": "%"}, {"measurement": "histological evaluation of islet grafts", "setting": "[3]", "value": "minimal intra-graft inflammation"}, {"measurement": "glycemic state of islet graft recipients", "setting": "[3]; day -1 through day 28", "value": "normoglycemic"}, {"measurement": "maintenance of BALB/c islet cell grafts", "setting": "[3]; day -1 through day 28", "value": 28, "unit": "days"}]}]}
